Test systems include HOP-62 NSCLC; DU-145 prostate; RPMI-8226 leukemia; OVCAR-4 ovarian; A498 renal; HCT-15 colon; OVCAR-5 ovarian; T-47D breast; SF-295 CNS; SK-MEL-2 melanoma.
Holding throughout (test): inhibition of tumour cell growth, NCI panel, 48 h

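Assay format: 96-well plates, 48-hour exposure. Abbreviation: GI50, concentration required for 50% inhibition of growth. TGI denotes the concentration required for complete inhibition of growth.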

In the case of `C[C@@](Br)(C(=O)O)[C@H](Br)C(=O)O`, the TGI with HOP-62 NSCLC, in the assay with DU-145 prostate, with RPMI-8226 leukemia, in the assay with OVCAR-4 ovarian, in the assay with A498 renal and with HCT-15 colon was over 100 µM throughout. In addition, the TGI in the assay with OVCAR-5 ovarian, in the assay with T-47D breast and in the assay with SF-295 CNS was over 100 µM throughout.
With `O=c1ccn([C@@H]2C=C(CO)[C@@H](O)[C@H]2O)c(=O)[nH]1`, the TGI in the assay on HOP-62 NSCLC, in the assay with SK-MEL-2 melanoma, in the assay with OVCAR-4 ovarian, with HCT-15 colon and with SF-295 CNS was over 625 µM in each case.
For `O=C(/C=C/CC(O)(c1ccccc1)c1ccccc1)Nc1ccccc1Cl`, the TGI in the assay with HOP-62 NSCLC, in the assay on SK-MEL-2 melanoma, in the assay on RPMI-8226 leukemia, in the assay on OVCAR-4 ovarian, in the assay with A498 renal and in the assay on HCT-15 colon was over 100 µM in each case. For the same molecule, the TGI with OVCAR-5 ovarian and with SF-295 CNS was over 100 µM in each case.
In the case of `CCOP(=O)(CC1OC(CO)C(O)C1O)OCC` (configuration not stated), the TGI in the assay on HOP-62 NSCLC, in the assay on SK-MEL-2 melanoma, in the assay with DU-145 prostate, in the assay on RPMI-8226 leukemia, in the assay with OVCAR-4 ovarian and in the assay with A498 renal was over 100 µM in each case. Also, the TGI with HCT-15 colon, in the assay on OVCAR-5 ovarian, in the assay on T-47D breast and in the assay on SF-295 CNS was over 100 µM each time.
As to `Cc1cccc2c(N)c3cccc(C(=O)NCC[N+](C)(C)[O-])c3nc12`, the TGI with HOP-62 NSCLC was 36.5 µM; in the assay with SK-MEL-2 melanoma, over 100 µM; in the assay with DU-145 prostate it was over 100 µM; with RPMI-8226 leukemia, over 100 µM; with OVCAR-4 ovarian it was 28.2 µM; in the assay on HCT-15 colon, over 100 µM. Further, the TGI in the assay on OVCAR-5 ovarian was 27.6 µM; with T-47D breast it was over 100 µM; with SF-295 CNS, 45.4 µM.
As to `COc1cccc(Nc2nc3c([nH]2)c(=O)n(C)c(=O)n3C)c1`, the TGI in the assay with HOP-62 NSCLC, in the assay with DU-145 prostate, with RPMI-8226 leukemia, with OVCAR-4 ovarian, in the assay with HCT-15 colon and with T-47D breast was over 10 µM throughout. The TGI with SF-295 CNS was over 10 µM.
Regarding `Fc1cccc(F)c1C1SCc2nc3cc(Cl)ccc3n21` (configuration not stated), the TGI with HOP-62 NSCLC was over 100 µM; with SK-MEL-2 melanoma, over 100 µM; in the assay on DU-145 prostate it was over 100 µM; in the assay on RPMI-8226 leukemia, 69.2 µM; with OVCAR-4 ovarian, over 100 µM; with HCT-15 colon it was over 100 µM. Also, the TGI in the assay with OVCAR-5 ovarian is over 100 µM; with T-47D breast, over 100 µM; with SF-295 CNS, over 70.2 µM.
For `COc1ccccc1Cn1c2c(c3cc(O)ccc31)C(=O)c1ccccc1C2=O`, the TGI in the assay on HOP-62 NSCLC is over 100 µM; with SK-MEL-2 melanoma, over 100 µM; with DU-145 prostate, over 100 µM; with RPMI-8226 leukemia it was 45.7 µM; in the assay on OVCAR-4 ovarian, 12 µM; in the assay with A498 renal, over 100 µM. In addition, the figures for the TGI in the assay on HCT-15 colon, with OVCAR-5 ovarian and in the assay with SF-295 CNS were over 100 µM, 34.1 µM and 42.2 µM, respectively.
For `CN(C)CCN1C(=O)N(CCN(C)C)c2c3cc(O)ccc3nc3c([N+](=O)[O-])ccc1c23`, the TGI in the assay on SK-MEL-2 melanoma worked out at 59.1 µM; with DU-145 prostate, 27 µM; in the assay on RPMI-8226 leukemia it was 42.4 µM; in the assay with OVCAR-4 ovarian, 28.4 µM; in the assay with A498 renal, 29.6 µM; in the assay with HCT-15 colon it was 20.8 µM. This molecule had a TGI in the assay on T-47D breast of 39.2 µM.
In the case of `CCOP(=O)(COCCn1nc(Br)c(=O)[nH]c1=O)OCC`, the TGI with HOP-62 NSCLC, in the assay on SK-MEL-2 melanoma, with DU-145 prostate, in the assay on RPMI-8226 leukemia, in the assay with A498 renal and in the assay on HCT-15 colon was over 100 µM in each case. For the same molecule, the TGI in the assay on OVCAR-5 ovarian and with T-47D breast was over 100 µM throughout.
Take `O=C1c2cc3c(cc2-c2c1c1cc(F)c(F)cc1c(=O)n2C[C@H](O)CO)OCO3`: the GI50 with HOP-62 NSCLC was 0.0225 µM; with SK-MEL-2 melanoma, 0.243 µM; in the assay with DU-145 prostate it was 0.0407 µM; in the assay with OVCAR-4 ovarian, 0.423 µM; in the assay on A498 renal, 0.0834 µM; in the assay on HCT-15 colon, 0.19 µM. For the same molecule, the GI50 with OVCAR-5 ovarian is 0.207 µM. Besides, the TGI in the assay with HOP-62 NSCLC was 0.186 µM; in the assay with SK-MEL-2 melanoma, 0.625 µM; with DU-145 prostate it was over 100 µM; with OVCAR-4 ovarian, over 100 µM; with A498 renal, 0.254 µM; with HCT-15 colon, 1.74 µM. Besides, the TGI in the assay with OVCAR-5 ovarian worked out at 4.55 µM.
`CC(C)NC(=O)OCc1c(COC(=O)NC(C)C)n(C)c2c1ccc1cc(Cl)c(Cl)cc12`: the TGI in the assay with HOP-62 NSCLC worked out at 28 µM; in the assay with SK-MEL-2 melanoma it was 32.2 µM; in the assay with RPMI-8226 leukemia it was 39.5 µM; with OVCAR-4 ovarian, 54.8 µM; in the assay on A498 renal, 4.85 µM; in the assay with HCT-15 colon it was 28.7 µM. Besides, the results for the TGI in the assay with OVCAR-5 ovarian, with T-47D breast and in the assay on SF-295 CNS were 29.4 µM, 18.8 µM and 30.8 µM, respectively.
Consider `CCc1ccc(OCc2ccccc2C(=O)Nc2ccc3nc(C)cc(N)c3c2)cc1`, for which the GI50 is 1.77 µM with HOP-62 NSCLC; 1.79 µM with SK-MEL-2 melanoma; 1.68 µM in the assay with DU-145 prostate; 1.5 µM in the assay with A498 renal; 1.62 µM with OVCAR-5 ovarian; 1.65 µM in the assay with SF-295 CNS. The TGI in the assay with HOP-62 NSCLC turned out to be 3.31 µM; with SK-MEL-2 melanoma, 3.39 µM; in the assay on DU-145 prostate, 3.17 µM; with A498 renal, 3 µM; in the assay on OVCAR-5 ovarian it was 3.14 µM; with SF-295 CNS, 3.13 µM.
Regarding `Cn1c(=O)c2[nH]c(Nc3cccc(Cl)c3)nc2n(C)c1=O`, the TGI with HOP-62 NSCLC was over 10 µM; in the assay on DU-145 prostate, over 10 µM; with RPMI-8226 leukemia, over 10 µM; with OVCAR-4 ovarian, over 10 µM; in the assay with HCT-15 colon it was over 10 µM; with T-47D breast, 8.72 µM. In the assay with SF-295 CNS, this molecule gave a TGI of over 10 µM.
For the molecule `CC1=[N+]([O-])C2(CCCC2)N(O)C1(C)C`, the TGI with HOP-62 NSCLC, in the assay on SK-MEL-2 melanoma, in the assay on DU-145 prostate, in the assay on RPMI-8226 leukemia, with OVCAR-4 ovarian and in the assay with HCT-15 colon was over 100 µM throughout. Moreover, the TGI in the assay with OVCAR-5 ovarian, in the assay on T-47D breast and with SF-295 CNS was over 100 µM in each case.
